Data from patent US9585897B2, “Anti-infective hydroxy-phenyl-benzoates and methods of use” (priority 2008, dated 2017).

Columns and labels:
[1] = tested on: S. aureus; format: cell-based, Staphylococcus aureus; details: for agr expression: dose-dependent, SAL at 25 or 50 μg/ml, DICL, 2.5 or 5 μg/ml
[2] = tested on: SA strains SH1000 (MSSA), USA300 (MRSA); test: Gene expression quantified by realtime PCR, statements covering both SA strains; format: cell-based, Staphylococcus aureus
[3] = tested on: USA300 (MRSA); test: Gene expression quantified by realtime PCR, strain USA300; details: early log phase (2-4 hr); 25 μg/ml
[4] = tested on: SA strains SH1000 (MSSA), USA300 (MRSA); test: Antibiotic resistance phenotype (antibiotic MIC) in presence of salicylates; details: vs. both strains
[5] = tested on: SH1000 (MSSA); test: Gene expression quantified by realtime PCR, strain SH1000; details: early log phase (2-4 hr); 25 μg/ml
[6] = tested on: SA strains SH1000 (MSSA), USA300 (MRSA); test: Hemolysin phenotype compared to gene expression; details: in parallel to hla; 25 μg/ml
[7] = tested on: S. aureus IE; test: Rabbit model of S. aureus IE, aspirin, vancomycin or both for 2 d; format: in vivo
Method: In the rabbit model of S. aureus IE, two intravenous (iv) aspirin dose regimens designed to encompass those used in a previous aspirin-alone efficacy study (4 or 8 mg/kg/d) were employed. Animals received aspirin alone, vancomycin alone at a low dose regimen (7.5 mg/kg bid iv), or the two agents combined. Treatment was only for 2 d, based on the rationale that as the in vivo effects of vancomycin are traditionally slow in onset, maximal disclosure of any synergistic effect of the two compounds may emerge at this early time point.

[8] = tested on: strain RN6390; test: Rabbit model of IE, aspirin alone 4 to 12 mg/kg/d for 4 d; format: in vivo
Method: To begin to assess the in vitro data sets for in vivo relevance, the rabbit model of IE as described by […] et al. Handbook of Animal Models of Infection. Academic Press, New York, N.Y., was utilized. Animals with pre-established IE caused by strain RN6390 were administered a wide range of iv aspirin dose regimens (4 to 12 mg/kg/d for 4 d therapy). This range affords human-equivalent sera levels in rabbits as described in Kupferwasser et al. Circulation. 1999 99:2791-7.

[9] = tested on: S. aureus strains MSSA (6850), MRSA (COL), RN6390, SH1000, sigB operon deleted strains; test: Rabbit IE model with a range of S. aureus strains; format: in vivo
[10] = Plasma prostacyclin levels after aspirin dosing
[11] = tested on: three distinct S. aureus strains; test: NSAID effect on phenotypic or genotypic characteristics of S. aureus in vitro; format: cell-based, Staphylococcus aureus
Excerpt: These findings also substantiate the concept that the anti-infective properties of aspirin likely occur by both platelet-dependent (aspirin) and platelet independent (SAL) mechanisms. Thus, the discovery of adjunctive use of SALs for MRSA infections are particularly relevant given: 1) long-term and extensive experience of aspirin for a variety of clinical indications; 2) its well-defined pharmacokinetics; and 3) its excellent adverse event and safety profiles.

[12] = tested on: S. aureus: ISP479C, Newman and COL; test: In vitro MICs of aspirin and SAL; format: cell-based, Staphylococcus aureus; details: 10-50 ug/ml up to 8 mg/ml
[13] = tested on: S. aureus α-toxin; format: cell-based, Staphylococcus aureus
[14] = tested on: S. aureus; test: Solid-phase plate assay, adherence to fibrin and platelet-fibrin matrices; format: cell-based, Staphylococcus aureus; details: organism pre-exposure to SAL in vitro
Method: A solid-phase plate assay was used to quantify the impact of SAL on the ability of S. aureus to adhere to fibrin and platelet-fibrin matrices. Platelet-rich (PRP) or platelet-free plasma (PFP) from control animals or those given a single-dose of aspirin iv (8 mg/kg) 5 hr prior to plasma isolation, were used to generate such matrices. […] Kupferwasser et al. Circulation. 1999 99:2791-7. These strains bound equally to control matrices and those constructed from aspirin-treated animals (data not shown).

[15] = tested on: S. aureus; test: sarA-repressible genes, lipase and protein A; details: in the presence of SAL
[16] = tested on: S. aureus (9 individual strains); test: S. aureus-to-fibrinogen or -fibronectin binding, solid-phase assays; format: cell-based, Staphylococcus aureus; details: pre-exposed to SAL 30 and 50 μg/ml; composite of 9 strains; dose-dependent
Excerpt: Induction of endovascular infections is linked to the microbial binding to relevant vascular damage sites.
Fibrinogen and fibronectin play key roles as ligands for S. aureus binding to cellular docking sites (e.g., platelets and endothelial cells), as well as bridging molecules that facilitate these same interactions in which additional factors are operative (e.g., gC1qR-platelet or endothelial cell binding). Peerschke and Ghebrehiwet, Immunobiology.
Mean reduction (±SD) vs. control (100%). Data are composite results of laboratory S. aureus RN6390, COL, Newman, and ISP479C, and clinical MRSA 67-0, 6850, Duke 28, Duke 153, and Duke 237. […] Key: A P<0.005; B <P 0.001.

[17] = tested on: S. aureus; test: Protease activity in S. aureus supernatants; format: cell-based, Staphylococcus aureus; details: in the presence of SAL
[18] = tested on: S. aureus: ISP479C, Newman and COL; details: physiologically relevant drug concentrations; cited from earlier work
[19] = tested on: S. aureus FDA 486 and rsbU/V/W mutants; format: cell-based, Staphylococcus aureus

With `O=C(O)Cc1ccccc1Nc1c(Cl)cccc1Cl` [DICL, diclofenac] the agr expression [1] was “reduced”.
In the case of `O=C(O)c1cc(O)ccc1O` [GTA, gentisic acid], the gene expression ([2]; 25 μg/ml) is reported as “did not alter”.
For `O=C(O)c1cc(-c2ccc(F)cc2F)ccc1O` [DIF, 5-(2,4-difluorophenyl)-2-hydroxy-benzoic acid], the “expression of agr RNAIII, hla, mprF, and sspA” value [3] was “suppressed”, the “regulatory and VF gene expression in MSSA and MRSA” value [2] was “significantly modulate” and the “effectiveness relative to SAL in suppressing virulence factor regulation or expression in MRSA” value ([2]; in vitro, MRSA including USA300) was “approximately 10 fold”. The “reduction of RNAIII (agr), hla, sspA compared with SAL” value ([2]; log phase) was “ten-fold higher reduction”, the “increases in ciprofloxacin MIC” value [4] was “prevented increases” and the “suppression of agr RNAIII, hla, and vraR” value [5] was > 20 fold. The Hemolysis phenotypes [6] was “suppressed”.
With `CN[C@H](CC(C)C)C(=O)N[C@H]1C(=O)N[C@@H](CC(N)=O)C(=O)N[C@H]2C(=O)N[C@H]3C(=O)N[C@H](C(=O)N[C@H](C(=O)O)c4cc(O)cc(O)c4-c4cc3ccc4O)[C@H](O)c3ccc(c(Cl)c3)Oc3cc2cc(c3O[C@@H]2O[C@H](CO)[C@@H](O)[C@H](O)[C@H]2O[C@H]2C[C@](C)(N)[C@H](O)[C@H](C)O2)Oc2ccc(cc2Cl)[C@H]1O` [vancomycin] the “bacterial counts in vegetations and kidneys” value ([7]; vancomycin 7.5 mg/kg bid iv) was “significantly reduces”.
In the case of `CC(=O)Oc1ccccc1C(=O)O` [aspirin, acetylsalicylic acid], the “beneficial effects of 8 mg/kg/d versus lower (4 mg/kg/d) or higher (12 mg/kg/d) dose regimens” value ([8]; 8 mg/kg/d) is reported as “significantly exceeded”, the “beneficial effects at increased dose” value ([8]; aspirin 12 mg/kg/d) is reported as “paradoxical loss” and the “vegetation weight, and vegetation and kidney bacterial densities” value ([8]; iv aspirin 4 to 12 mg/kg/d for 4 d) is reported as “consistent and dose-dependent reduction”. The “mass of echocardiographic detectable cardiac valve vegetations” value ([8]; rabbit, in vivo) was “dramatic reductions”, the “modulation of gene expression or hemolysis” value ([2]; 25 μg/ml) was “limited modulation” and the “effects of aspirin treatment across strains” value ([9]; RN6390 and rsbU-repaired variant SH1000) was “Equivalent salutary effects”. The impact of aspirin ([9]; strains deleted of their entire sigB operon) was “dampened”, the “bacterial counts in vegetations and kidneys” value ([7]; aspirin 8 mg/kg/d iv) was “significantly reduces” and the prostacyclin generation ([10]; 12 mg/kg aspirin dosing) was “prolonged suppression”. The “prolonged suppression of prostacyclin generation” value ([10]; 4 or 8 mg/kg aspirin) was “neither at 4 or 8 mg/kg”, the “changes in phenotypic or genotypic characteristics” value [11] was “neither aspirin (parent compound of SAL) nor indomethacin caused detectable changes” and the “growth inhibition (in vitro MIC testing)” value [12] was “no substantial growth inhibition”.
In the case of `O=C(O)c1ccccc1O` [SAL, salicylic acid], the Hla protein production [13] is reported as “dose dependent reduction”, the “thrombolysis and hemolysis by supernates” value [13] is reported as “reduced” and the α-toxin elaboration [13] is reported as “reduced”. For the same molecule, the “binding to fibrin and platelet-fibrin matrices” value [14] was “Significant reductions”, the hla expression [1] was “significantly reduced” and the “protein A gene expression (spa)” value [1] was “increased”. For the same molecule, the “sarA (P1) expression” value [1] was “down-regulating”, the “sarC (P3) expression” value [1] was “up-regulating” and the agr expression [1] was “reduced”. The “regulatory and VF gene expression in MSSA and MRSA” value [2] was “significantly modulate”, the “modulation of gene expression or hemolysis” value ([2]; 25 μg/ml) was “limited modulation” and the “in vivo efficacy compared with aspirin” value ([9]; same in vivo efficacy study carried out with SAL) was “equivalent results to aspirin alone”. The Lipase activity increase [15] was ~2.6 fold, the “protein A expression increase” value [15] was ~20% and the “fibrinogen and fibronectin binding” value [16] was “significant reductions”. The “protease activity in supernatants” value [17] was “increased up to five-fold”, the “intrinsic bacteriostatic or bactericidal effects” value [18] was “no evident intrinsic bacteriostatic or bactericidal effects” and the “sigB expression (as measured by increases in asp23 expression)” value [19] was “induces”. For the same molecule, the “growth inhibition (in vitro MIC testing)” value [12] was “no substantial growth inhibition”.
For `COc1ccc2c(c1)c(CC(=O)O)c(C)n2C(=O)c1ccc(Cl)cc1` [indomethacin], the “changes in phenotypic or genotypic characteristics” value [11] was “neither aspirin (parent compound of SAL) nor indomethacin caused detectable changes”.
